From patent US20230390274A1 (EPIRIUM BIO INC., priority 2020, published 2023)
pIC50: −log10 of the molar value. Read-outs that look alike come from different tables or passages of the source.

Biological target: 15-PGDH/HPGD (Homo sapiens (Human), UniProt P15428)
Experiment: hPGDH inhibitor screening biochemical assay
Method: A hydroxyprostaglandin dehydrogenase inhibition screening biochemical assay can be performed to assess the synthesized inhibitors provided herein. Provided herein is an exemplary biochemical assay for hPGDH inhibitor screening.
The in vitro biochemical assay can be performed in white, 384 plates in total 20 μl reaction volume consisting of 10 nM of 15-PGDH/HPGD (R&D System #5660-DH), 15 μM Prostaglandin E2 (Sigma, Cat #P5640-10MG) and 0.25 mM β-Nicotinamide adenine dinucleotide sodium salt (Sigma, Cat #N0632-5G) made in reaction buffer (50 mM Tris-HCl, pH 7.5, 0.01% Tween 20) at 10-point dose response curve for test/tool compounds. Briefly, 5 μl (4×) of compounds solution and 5 μl (final concentration, 10 nM) of enzyme solution is added to white 384 well plates and incubated for 10 mins at 37° C. 5 μl (4×) of Prostaglandin E2 and 5 μl (4×) of β-Nicotinamide adenine dinucleotide sodium salt is added to the wells and incubated for 10 mins at rt. Fluorescence is recorded at ex/em=340 nm/485 nm. The percentage (%) inhibition of enzyme activity was determined relative to […] (1% DMSO) and IC50 was calculated using GraphPad prism software (four parameter-variable slope equation).

[1] = 10 nM 15-PGDH/HPGD, 15 μM PGE2, 0.25 mM NAD, read-out: hPGDH: Average IC50
[2] = Table 2, PGDH inhibitors with a phenyl core, read-out: hPGDH: IC50
[3] = Table 1, PGDH inhibitors with a 6-5 ring core, read-out: hPGDH: IC50

Chain of 15-PGDH/HPGD (P15428 whole entry): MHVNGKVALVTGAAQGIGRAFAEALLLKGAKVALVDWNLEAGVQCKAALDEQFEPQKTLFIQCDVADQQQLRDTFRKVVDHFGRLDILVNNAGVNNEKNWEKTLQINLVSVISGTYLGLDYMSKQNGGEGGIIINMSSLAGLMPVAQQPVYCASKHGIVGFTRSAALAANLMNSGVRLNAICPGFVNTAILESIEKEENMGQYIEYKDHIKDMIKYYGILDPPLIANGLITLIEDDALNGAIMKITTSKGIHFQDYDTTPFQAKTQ

Row | pIC50 [1] | Compound | other results
1 | > 7.00 | O=C(NC1(C(=O)O)CC1)c1ccc(-n2ccc3cc(C(=O)N4CCC(F)(F)CC4)cnc32)cc1 [A-233] | –
2 | – | O=C(c1ccc(COc2ccccc2Br)cc1)N1CCCCC1 [drawing 120] | pIC50 [2]: 8.51
3 | – | COc1ccc(-n2cnc3cc(C(=O)N4CCC(F)CC4)cnc32)cc1 [drawing 79] | pIC50 [3]: 7.71
4 | > 7.00 | O=C(c1ccc2c(c1)nnn2-c1cccc(Cl)c1)N1CCCCC1 [A-95, (1-(3-chlorophenyl)-1H-benzo[d][1,2,3]triazol-5-yl)(piperidin-1-yl)methanone] | –
5 | > 7.00 | CC(C)(C)CNC(=O)c1cncc(-n2ccc3cc(C(=O)N4CCC(F)(F)CC4)cnc32)c1 [A-217, 5-(5-(4,4-difluoropiperidine-1-carbonyl)-1H-pyrrolo[2,3-b]pyridin-1-yl)-N-neopentylnicotinamide] | –
6 | > 7.00 | O=C(c1cnc2c(ccn2-c2ccc(-c3n[nH]c(C4CC4)n3)nc2)c1)N1CCC(F)(F)CC1 [A-333, (1-(6-(5-cyclopropyl-1H-1,2,4-triazol-3-yl)pyridin-3-yl)-1H-pyrrolo[2,3-b]pyridin-5-yl)(4,4-difluoropiperidin-1-yl)methanone] | –
7 | > 7.00 | CCOC(=O)Cc1nc2cc(C(=O)N3CCCCC3)ccc2n1-c1cccc(Cl)c1 [A-27] | –
8 | > 7.00 | CC(C)NC(=O)c1ccc(-n2ccc3cc(C(=O)N4CCC(F)(F)CC4)cnc32)cc1 [A-216] | –
9 | > 7.00 | CCC(CC)n1cnc2cc(C(=O)N3CCCCC3)ccc21 [A-311] | –
10 | > 7.00 | O=C(c1ccc2c(c1)ncn2-c1cccc(Cl)c1)N1CCCCC1 [A-6] | –
11 | > 7.00 | COc1ccc(-n2ccc3cc(C(=O)N4CCC(F)CC4)ccc32)cc1 [A-304] | –
12 | > 7.00 | Cc1c(C(=O)N2CCC(F)CC2)cnc2c1ccn2-c1ccc(C#N)cc1 [A-206, 4-(5-(4-fluoropiperidine-1-carbonyl)-4-methyl-1H-pyrrolo[2,3-b]pyridin-1-yl)benzonitrile] | –
13 | > 7.00 | COc1ccc(-n2ccc3cc(C(=O)N4CCCCC4)cnc32)cn1 [A-157] | –
14 | > 7.00 | O=C(c1ccc2c(cnn2-c2cccc(Cl)c2)c1)N1CCCCC1 [A-93, (1-(3-chlorophenyl)-1H-indazol-5-yl)(piperidin-1-yl)methanone] | –
15 | > 7.00 | CC(C)(C#N)c1cncc(-n2ccc3cc(C(=O)N4CCC(F)(F)CC4)cnc32)c1 [A-289, 2-(5-(5-(4,4-difluoropiperidine-1-carbonyl)-1H-pyrrolo[2,3-b]pyridin-1-yl)pyridin-3-yl)-2-methylpropanenitrile] | –
16 | > 7.00 | NC(=O)c1cccc(-n2ccc3cc(C(=O)N4CCCCC4)cnc32)c1 [A-160] | –
17 | > 7.00 | CC(C)(O)c1ccc(-n2ccc3cc(C(=O)N4CCCCC4)cnc32)cc1 [A-130] | –
18 | > 7.00 | COc1ccc(-n2ccc3cc(C(=O)N4C[C@H](C)C[C@H](C)C4)cnc32)cc1 [A-138, ((3R,5S)-3,5-dimethylpiperidin-1-yl)(1-(4-methoxyphenyl)-1H-pyrrolo[2,3-b]pyridin-5-yl)methanone] | –
19 | – | O=C(c1ccc2c(cnn2-c2cccc(Cl)c2)c1)N1CCCCC1 [drawing 111] | pIC50 [3]: 8.24
20 | > 7.00 | O=C(c1cnc2c(-c3cccc(Cl)c3)cnn2c1)N1CCCCC1 [A-96, (3-(3-chlorophenyl)pyrazolo[1,5-a]pyrimidin-6-yl)(piperidin-1-yl)methanone] | –
21 | > 7.00 | O=C(c1ccc2c(c1)c(Cl)cn2-c1cccc(Cl)c1)N1CCCCC1 [A-88] | –

Row | pIC50 [1] | Compound | other results
22 | – | O=C(c1ccc2c(c1)nnn2-c1cccc(Cl)c1)N1CCCCC1 [drawing 108] | pIC50 [3]: 8.51
23 | ≤ 6.00 | O=C(c1ccc(COc2ccccc2Cl)cn1)N1CCC(F)CC1 [A-76] | –
24 | > 7.00 | O=C(c1cnc2c(ccn2-c2cncc(-c3noc(=O)[nH]3)c2)c1)N1CCC(F)(F)CC1 [A-252, 3-(5-(5-(4,4-difluoropiperidine-1-carbonyl)-1H-pyrrolo[2,3-b]pyridin-1-yl)pyridin-3-yl)-1,2,4-oxadiazol-5(4H)-one] | –
25 | > 7.00 | O=C(c1ccc2c(cnn2-c2cncc(Cl)c2)c1)N1CCCCC1 [A-325] | –
26 | > 7.00 | COc1ccc(-n2cc(C)c3cc(C(=O)N4CCC(F)CC4)ccc32)cc1 [A-305, (4-fluoropiperidin-1-yl)(1-(4-methoxyphenyl)-3-methyl-1H-indol-5-yl)methanone] | –
27 | > 7.00 | COc1ccc(-n2ccc3c(C)c(C(=O)N4CCCCC4)cnc32)cc1 [A-321] | –
28 | > 7.00 | O=C(O)c1ccc(-n2ccc3cc(C(=O)N4CCC(F)(F)CC4)cnc32)nc1 [A-264] | –
29 | – | O=C(c1ccc2c(c1)ncn2-c1cccc(Cl)c1)N1CCC(Cl)C1 (centres unmarked) [drawing 90] | pIC50 [3]: 7.19
30 | > 7.00 | CC(C)(C)NC(=O)c1cncc(-n2ccc3cc(C(=O)N4CCC(F)(F)CC4)cnc32)c1 [A-246, N-(tert-butyl)-5-(5-(4,4-difluoropiperidine-1-carbonyl)-1H-pyrrolo[2,3-b]pyridin-1-yl)nicotinamide] | –
31 | > 7.00 | CN(C)c1ccc(-n2ccc3cc(C(=O)N4CCCCC4)cnc32)cc1 [A-150] | –
32 | – | NC(=O)Cc1nc2cc(C(=O)N3CCCCC3)ccc2n1-c1cccc(Cl)c1 | pIC50 [3]: 6.24
33 | > 7.00 | O=C(c1cnc2c(ccn2-c2cccc(C(=O)N3CC[S+]([O-])C3)c2)c1)N1CCC(F)(F)CC1 (centres unmarked) [A-294, (4,4-difluoropiperidin-1-yl)(1-(3-(1-oxidothiazolidine-3-carbonyl)phenyl)-1H-pyrrolo[2,3-b]pyridin-5-yl)methanone] | –
34 | > 7.00 | O=C(c1ccc2c(c1)ncn2-c1cccc(Cl)c1)N1CC2CCCC2C1 (centres unmarked) [A-1] | –
35 | > 7.00 | O=C(c1cnc2c(ccn2-c2ccc(O)nc2)c1)N1CCC(F)CC1 [A-55] | –
36 | > 7.00 | CC(C)(O)CCc1cc2cc(C(=O)N3CCC(F)(F)CC3)cnc2n1-c1ccc(C#N)cc1 [A-244, 4-(5-(4,4-difluoropiperidine-1-carbonyl)-2-(3-hydroxy-3-methylbutyl)-1H-pyrrolo[2,3-b]pyridin-1-yl)benzonitrile] | –
37 | > 7.00 | CCC(CC)NC(=O)c1cncc(-n2ccc3cc(C(=O)N4CCC(F)(F)CC4)cnc32)c1 [A-219, 5-(5-(4,4-difluoropiperidine-1-carbonyl)-1H-pyrrolo[2,3-b]pyridin-1-yl)-N-(pentan-3-yl)nicotinamide] | –
38 | > 7.00 | COc1ccc(Cn2ncc3cc(-n4ccc5cc(C(=O)N6CCCCC6)cnc54)ccc32)cc1 [A-120] | –
39 | > 7.00 | CN(C)c1ccc(-n2ccc3cc(C(=O)N4CCCCC4)cnc32)cn1 [A-116] | –
40 | > 7.00 | NC(=O)c1cncc(-n2ccc3cc(C(=O)N4CCCCC4)cnc32)c1 [A-348] | –
41 | > 7.00 | NC(=O)[C@@H]1CCCN1C(=O)c1cccc(-n2ccc3cc(C(=O)N4CCC(F)(F)CC4)cnc32)c1 [A-276, (S)-1-(3-(5-(4,4-difluoropiperidine-1-carbonyl)-1H-pyrrolo[2,3-b]pyridin-1-yl)benzoyl)pyrrolidine-2-carboxamide] | –
42 | > 7.00 | CNC(=O)c1ccc(-n2ccc3cc(C(=O)N4CCCCC4)cnc32)cc1 [A-140] | –

Row | pIC50 [1] | Compound | other results
43 | > 7.00 | O=C(c1cnc2c(ccn2-c2cc(Cl)cc(C(=O)N3CCS(=O)(=O)CC3)c2)c1)N1CCC(F)(F)CC1 [A-288] | –
44 | > 7.00 | NC(=O)c1cncc(-n2cc(Cl)c3cc(C(=O)N4CCC(F)(F)CC4)cnc32)c1 [A-273] | –
45 | > 7.00 | N#Cc1ccc(-n2ccc3cc(C(=O)N4CCCCC4)cnc32)cn1 [A-117] | –
46 | > 7.00 | O=C(c1ccc(CSc2ccccc2Cl)cc1)N1CCCCC1 [A-72] | –
47 | > 7.00 | CCOC(=O)CCc1nc2cc(C(=O)N3CCCCC3)ccc2n1-c1cccc(Cl)c1 [A-29] | –
48 | > 7.00 | COc1ccc(-n2cnc3cc(C(=O)N4CCCCC4)ccc32)nc1 [A-35] | –
49 | > 7.00 | COc1ccc(-n2cnc3cc(C(=O)N4CCCCC4)ccc32)cc1 [A-32] | –
50 | – | O=C(c1ccc(COc2ccccc2Cl)cc1)N1CCCCC1 [drawing 117] | pIC50 [2]: 7.73
51 | ≤ 6.00 | COc1ccccc1C(=O)N(C)c1ccc(C(=O)N2CCCCC2)cc1 [A-81] | –
52 | > 7.00 | COc1ccc(-n2c(C)nc3cc(C(=O)N4CCC(F)CC4)ccc32)cc1 [A-303] | –
53 | – | O=C(c1ccc2c(c1)ncn2-c1cccc(Cl)c1)N1CC2(CCC2)C1 [drawing 99] | pIC50 [3]: 7.36
54 | > 7.00 | Cc1nc(-c2cccc(-n3ccc4cc(C(=O)N5CCCCC5)cnc43)c2)no1 [A-214] | –
55 | > 7.00 | CCNC(=O)c1ccc(-n2ccc3cc(C(=O)N4CCC(F)(F)CC4)cnc32)cc1 [A-225] | –
56 | > 7.00 | O=C(c1ccc2c(c1)ncn2-c1ccc2c(c1)OCO2)N1CCCCC1 [A-37] | –
57 | ≤ 6.00 | COc1ccc(-n2c(NC(C)=O)nc3cc(C(=O)N4CCC(F)CC4)cnc32)cc1 [A-68] | –
58 | ≤ 6.00 | COc1ccc(-n2ccc3cc(C(=O)N4CC(c5ccccc5)C4)cnc32)cc1 [A-135] | –
59 | > 7.00 | COc1ccc(-n2ccc3c(C#N)c(C(=O)N4CCCCC4)cnc32)cc1 [A-323, 1-(4-methoxyphenyl)-5-(piperidine-1-carbonyl)-1H-pyrrolo[2,3-b]pyridine-4-carbonitrile] | –
60 | – | O=C(c1ccc2c(c1)ncn2-c1cccc(Cl)c1)N1CCC(O)C1 (centres unmarked) [drawing 84] | pIC50 [3]: 5.54
61 | – | NC(=O)CCc1nc2cc(C(=O)N3CCCCC3)ccc2n1-c1cccc(Cl)c1 [drawing 85] | pIC50 [3]: 7.35
62 | > 7.00 | O=C(c1cnc2c(ccn2-c2ccc(CO)cc2)c1)N1CCC(F)CC1 [A-127] | –
